Entries after “also recorded” stand apart in the source; their conditions may differ. Counter-ions that a name gives are not always drawn.
Legend:
Assay type in all cases: physicochemical
[1] = Stability testing of syringed formulation prepared without preservative (Example 3); settings: stability study
Description: The formulations without a preservative were prepared following the method described in Example 1 except no preservative(s) was used.
(§1) The samples were produced using an approved batch record and shipped to contract laboratories for stability testing. The samples were stored according to ICH Q1A (R2) as follows: • Long term: Refrigerated (5° C. ±3° C.) in Horizontal Orientation, Protected from Light • Accelerated Condition: Room Temperature (25° C. ±2° C. and 40% RH ±5% RH) Horizontal Orientation, Protected from Light
(§2) The method development procedure for the strength and potency aligned with the defined criteria in USP <1225> for a stability indicating method. The procedures used for microbiology testing were based on method suitability performed at T0.

[2] = Stability testing of syringed formulation with methylparaban (Example 2); settings: stability study
Description: as §1, §2

[3] = Potency after room temperature storage of syringe in nitrogen-flushed hermetically sealed pouch (Example 4); settings: formulation of Table 4 (no preservative) in syringe, hermetically sealed pouch flushed with nitrogen
Description: A preliminary evaluation of the feasibility of packaging syringes was performed. Hermetically sealed pouch containing a syringe with the exemplary formulation from Table 4 was flushed with nitrogen to reduce oxygen levels.

Structure (SMILES) | Impurities of the active versus limits of ICH guidelines, FDA and in-house SOP [1] | Impurities of the active versus FDA/ICH guidelines ([2]; hydrochloride) | Impurities of the active versus FDA/ICH guidelines ([2]; listed as Bupivicaine, hydrochloride) | Potency (% label claim) after storage at room temperature for 90 days [3] [%] | Impurities of the active versus FDA/ICH guidelines [2]
CCCCN1CCCCC1C(=O)Nc1c(C)cccc1C (stereo not shown) [Bupivacaine HCl, bupivacaine hydrochloride] | met the acceptable limits | met FDA/ICH Guidelines | met the acceptable limits | 97.2 | 
CNC[C@H](O)c1ccc(O)c(O)c1 [Epinephrine, epinephrine] | met the acceptable limits |  |  | 104.2 | met FDA/ICH Guidelines; also recorded: met the acceptable limits
